Laboratory results taken from ChEMBL document CHEMBL1201861, “Genomics of Drug Sensitity in Cancer screening data, Wellcome Trust Sanger Institute”.

Experiments:
Experiment in all cases: cells
SF-126 = type: functional, cell-based, Homo sapiens; settings: Homo sapiens, SF-126;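 also: growth inhibition of human SF126 cells, read out with a cell viability assay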
GAK = type: functional, cell-based, Homo sapiens; settings: Homo sapiens, GAK;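 also: cell growth inhibition read out by a cell viability assay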
NMC-G1 = type: functional, cell-based, Homo sapiens; settings: Homo sapiens, NMC-G1;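 also: growth inhibition of the NMC-G1 cell line, measured with a cell viability read-out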
TE-12 = type: functional, cell-based; settings: Homo sapiens;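 also: growth inhibition of TE-12 cells, read out by a cell viability assay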
KARPAS-45 = type: functional, cell-based; settings: Homo sapiens;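 also: inhibition of cell line growth, read out through a viability assay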
CAL-12T = type: functional, cell-based, Homo sapiens; settings: Homo sapiens, CAL-12T;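 also: growth inhibition of human CAL-12T cells, read out with a cell viability assay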
RH-1 = type: functional, cell-based, Homo sapiens; settings: Homo sapiens, RH-1;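 also: growth inhibition of human RH-1 cells, read out with a cell viability assay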
CAL-72 = type: functional, cell-based, Homo sapiens; settings: Homo sapiens, CAL-72;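 also: cell viability assay measuring inhibition of proliferation in the CAL-72 cell line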
D-542MG = type: functional, cell-based, Homo sapiens; settings: Homo sapiens, D-542MG
A2058 = type: functional, cell-based; settings: Homo sapiens;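 also: reduction of A2058 cell growth, read out with a viability assay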
DMS-79 = type: functional, cell-based; settings: Homo sapiens;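 also: growth inhibition measured with a cell viability assay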
CWR22R = type: functional, cell-based, Homo sapiens; settings: Homo sapiens, 22Rv1;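 also: growth inhibition of 22Rv1 cells, read out with a cell viability assay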
Becker = type: functional, cell-based, Homo sapiens; settings: Homo sapiens, Becker;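 also: growth inhibition of Becker cells, read out with a cell viability assay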
KGN = type: functional, cell-based, Homo sapiens; settings: Homo sapiens, KGN;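 also: growth inhibition of KGN cells, read out with a cell viability assay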
MCF7 = type: functional, cell-based, Homo sapiens; settings: Homo sapiens, MCF7;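 also: growth inhibition of human MCF7 cells, read out with a cell viability assay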
NCI-H747 = type: functional, cell-based; settings: Homo sapiens;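 also: growth inhibition of human NCI-H747 cells, read out by a cell viability assay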
NCI-H82 = type: functional, cell-based; settings: Homo sapiens;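 also: growth inhibition of NCI-H82 cells, measured with a cell viability readout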
SK-MES-1 = type: functional, cell-based, Homo sapiens; settings: Homo sapiens, SK-MES-1;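 also: growth inhibition of human SK-MES-1 cells, read out with a cell viability assay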
MDA-MB-231 = type: functional, cell-based, Homo sapiens; settings: Homo sapiens, MDA-MB-231
AM-38 = type: functional, cell-based, Homo sapiens; settings: Homo sapiens, AM-38;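 also: growth inhibition of AM-38 cells of human origin, read out by a cell viability assay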
SKG-IIIa = type: functional, cell-based, Homo sapiens; settings: Homo sapiens, SKG-IIIa;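 also: cell growth inhibition, read out with a cell viability assay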
SN12C = type: functional, cell-based, Homo sapiens; settings: Homo sapiens, SN12C;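 also: growth inhibition of human SN12C cells, measured by a cell viability assay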
Daoy = type: functional, cell-based, Homo sapiens; settings: Homo sapiens, Daoy;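 also: daoy cell growth inhibition, read out as cell viability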
NCI-H1623 = type: functional, cell-based, Homo sapiens; settings: Homo sapiens, NCI-H1623;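 also: cell viability assay used as the read-out for growth inhibition of NCI-H1623 cells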
HC-1 = type: functional, cell-based; settings: Homo sapiens;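 also: growth inhibition of HC-1 cells measured by a cell viability assay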
HuP-T3 = type: functional, cell-based, Homo sapiens; settings: Homo sapiens, HuP-T3;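 also: HuP-T3 cell growth inhibition, read out with a cell viability assay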
D-336MG = type: functional, cell-based, Homo sapiens; settings: Homo sapiens, D-336MG
MKN-45 = type: functional, cell-based, Homo sapiens; settings: Homo sapiens, MKN-45;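 also: growth inhibition of human MKN-45 cells, measured with a cell viability assay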
EW-18 = type: functional, cell-based; settings: Homo sapiens;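 also: growth inhibition of EW-18 cells, read out by a cell viability assay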
A673 = type: functional, cell-based, Homo sapiens; settings: Homo sapiens, A673;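 also: growth inhibition of human A673 cells, read out through a cell viability assay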
SW626 = type: functional, cell-based, Homo sapiens; settings: Homo sapiens, SW626;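 also: growth inhibition of SW626 cells, measured with a cell viability assay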
Ramos-2G6-4C10 = type: functional, cell-based; settings: Homo sapiens;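 also: growth inhibition of the cell line, measured by a cell viability read-out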
RERF-LC-MS = type: functional, cell-based, Homo sapiens; settings: Homo sapiens, RERF-LC-MS;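 also: growth inhibition of human RERF-LC-MS cells, read out by a cell viability assay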
NCI-H1651 = type: functional, cell-based, Homo sapiens; settings: Homo sapiens, NCI-H1651;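 also: Read-out is a cell viability assay, with IC50 expressing inhibition of NCI-H1651 cell growth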
NCI-H209 = type: functional, cell-based; settings: Homo sapiens;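 also: growth inhibition of human NCI-H209 cells, measured by a cell viability assay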
U-266 = type: functional, cell-based; settings: Homo sapiens
JVM-2 = type: functional, cell-based; settings: Homo sapiens;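 also: growth inhibition of JVM-2 cells determined by a cell viability assay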
MDA-MB-453 = type: functional, cell-based, Homo sapiens; settings: Homo sapiens, MDA-MB-453
PFSK-1 = type: functional, cell-based, Homo sapiens; settings: Homo sapiens, PFSK-1;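 also: cell viability assay measuring how strongly compounds suppress growth of human PFSK-1 cells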
D283 Med = type: functional, cell-based, Homo sapiens; settings: Homo sapiens, D283 Med
Mo = type: functional, cell-based; settings: Homo sapiens
639-V = type: functional, cell-based, Homo sapiens; settings: Homo sapiens, 639-V;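 also: growth inhibition of 639-V cells, read out with a cell viability assay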
RVH-421 = type: functional, cell-based, Homo sapiens; settings: Homo sapiens, RVH-421
MLMA = type: functional, cell-based, Homo sapiens; settings: Homo sapiens, MLMA;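 also: growth inhibition of MLMA cells (human), determined through a cell viability readout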
8505C = type: functional, cell-based, Homo sapiens; settings: Homo sapiens, 8505C
NCI-H292 = type: functional, cell-based, Homo sapiens; settings: Homo sapiens, NCI-H292;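 also: growth inhibition of NCI-H292 cells, read out with a cell viability assay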
A704 = type: functional, cell-based, Homo sapiens; settings: Homo sapiens, A704;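 also: growth inhibition of human A704 cells, read out with a cell viability assay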
SW756 = type: functional, cell-based, Homo sapiens; settings: Homo sapiens, SW756;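 also: growth inhibition of human SW756 cells, read out with a cell viability assay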
NCI-H1304 = type: functional, cell-based; settings: Homo sapiens;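 also: growth inhibition of the cancer cell line, measured in a cell viability assay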
AN3-CA = type: functional, cell-based; settings: Homo sapiens;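 also: growth inhibition of human AN3-CA cells measured by a cell viability assay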
KG-1 = type: functional, cell-based; settings: Homo sapiens;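 also: growth inhibition of KG-1 cells, read out by a cell viability assay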
SNU-C2B = type: functional, cell-based, Homo sapiens; settings: Homo sapiens, SNU-C2B;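 also: cell viability readout used to measure compound-driven suppression of SNU-C2B cell proliferation, IC50 marking half-maximal growth inhibition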

Q: For `CN(C)C/C=C/C(=O)Nc1cc2c(Nc3ccc(F)c(Cl)c3)ncnc2cc1O[C@H]1CCOC1` [AFATINIB], which IC50 (SF-126) is on record?
A: > 0.5 µM

Q: And the IC50 (NMC-G1)?
A: > 0.5 µM

Q: And the IC50 (TE-12)?
A: > 0.5 µM

Q: And the IC50 (KARPAS-45)?
A: 0.0167 µM

Q: And the IC50 (CAL-12T)?
A: > 0.5 µM

Q: What about the IC50 (RH-1) of the same compound?
A: > 0.5 µM

Q: What about the IC50 (CAL-72) of the same compound?
A: > 0.5 µM

Q: What about the IC50 (D-542MG) of the same compound?
A: > 0.5 µM

Q: What about the IC50 (A2058) of the same compound?
A: > 0.5 µM

Q: And the IC50 (DMS-79)?
A: > 0.5 µM

Q: What about the IC50 (CWR22R) of the same compound?
A: > 0.5 µM

Q: What about the IC50 (Becker) of the same compound?
A: > 0.5 µM

Q: And the IC50 (KGN)?
A: > 0.5 µM

Q: What about the IC50 (MCF7) of the same compound?
A: > 0.5 µM

Q: And the IC50 (NCI-H747)?
A: > 0.5 µM

Q: And the IC50 (NCI-H82)?
A: > 0.5 µM

Q: What about the IC50 (SK-MES-1) of the same compound?
A: > 0.5 µM

Q: What about the IC50 (MDA-MB-231) of the same compound?
A: > 0.5 µM

Q: What about the IC50 (AM-38) of the same compound?
A: > 0.5 µM

Q: What about the IC50 (SKG-IIIa) of the same compound?
A: > 0.5 µM

Q: What about the IC50 (SN12C) of the same compound?
A: > 0.5 µM

Q: And the IC50 (Daoy)?
A: > 0.5 µM

Q: And the IC50 (NCI-H1623)?
A: 0.0802 µM

Q: What about the IC50 (HC-1) of the same compound?
A: > 0.5 µM

Q: And the IC50 (HuP-T3)?
A: > 0.5 µM

Q: And the IC50 (D-336MG)?
A: > 0.5 µM

Q: And the IC50 (MKN-45)?
A: > 0.5 µM

Q: And the IC50 (EW-18)?
A: > 0.5 µM

Q: What about the IC50 (A673) of the same compound?
A: > 0.5 µM

Q: And the IC50 (SW626)?
A: > 0.5 µM

Q: What about the IC50 (Ramos-2G6-4C10) of the same compound?
A: > 0.5 µM

Q: And the IC50 (RERF-LC-MS)?
A: > 0.5 µM

Q: And the IC50 (NCI-H1651)?
A: > 0.5 µM

Q: What about the IC50 (NCI-H209) of the same compound?
A: 0.205 µM

Q: What about the IC50 (U-266) of the same compound?
A: > 0.5 µM

Q: And the IC50 (JVM-2)?
A: > 0.5 µM

Q: What about the IC50 (MDA-MB-453) of the same compound?
A: > 0.5 µM

Q: And the IC50 (PFSK-1)?
A: > 0.5 µM

Q: What about the IC50 (D283 Med) of the same compound?
A: > 0.5 µM

Q: And the IC50 (Mo)?
A: > 0.5 µM

Q: What about the IC50 (639-V) of the same compound?
A: > 0.5 µM

Q: And the IC50 (RVH-421)?
A: > 0.5 µM

Q: And the IC50 (MLMA)?
A: > 0.5 µM

Q: And the IC50 (8505C)?
A: > 0.5 µM

Q: And the IC50 (NCI-H292)?
A: 0.0609 µM

Q: And the IC50 (A704)?
A: > 0.5 µM

Q: And the IC50 (SW756)?
A: > 0.5 µM

Q: And the IC50 (NCI-H1304)?
A: > 0.5 µM

Q: What about the IC50 (AN3-CA) of the same compound?
A: > 0.5 µM

Q: What about the IC50 (KG-1) of the same compound?
A: > 0.5 µM

Q: And the IC50 (SNU-C2B)?
A: > 0.5 µM

Q: Which results are given for `O=C(NOCC1CC1)c1ccc(F)c(F)c1Nc1ccc(I)cc1Cl` [CI-1040]?
A: IC50 (SF-126): > 10 µM; IC50 (GAK): 3.33 µM; IC50 (NMC-G1): > 10 µM; IC50 (TE-12): 9.03 µM; IC50 (KARPAS-45): > 10 µM; IC50 (CAL-12T): 8.66 µM; IC50 (RH-1): > 10 µM; IC50 (CAL-72): > 10 µM; IC50 (D-542MG): > 10 µM; IC50 (A2058): 2.19 µM; IC50 (DMS-79): > 10 µM; IC50 (CWR22R): > 10 µM; IC50 (Becker): > 10 µM; IC50 (KGN): 9.84 µM; IC50 (MCF7): > 10 µM; IC50 (NCI-H747): 4.69 µM; IC50 (NCI-H82): > 10 µM; IC50 (SK-MES-1): 5.84 µM; IC50 (MDA-MB-231): 4.29 µM; IC50 (AM-38): > 10 µM; IC50 (SKG-IIIa): > 10 µM; IC50 (SN12C): 3.25 µM; IC50 (Daoy): > 10 µM; IC50 (NCI-H1623): > 10 µM; IC50 (HC-1): > 10 µM; IC50 (HuP-T3): 5.62 µM; IC50 (D-336MG): > 10 µM; IC50 (MKN-45): 9.45 µM; IC50 (EW-18): > 10 µM; IC50 (A673): 8.63 µM; IC50 (SW626): 4.04 µM; IC50 (Ramos-2G6-4C10): > 10 µM; IC50 (RERF-LC-MS): 5.69 µM; IC50 (NCI-H1651): > 10 µM; IC50 (NCI-H209): > 10 µM; IC50 (U-266): 7.56 µM; IC50 (JVM-2): > 10 µM; IC50 (MDA-MB-453): > 10 µM; IC50 (PFSK-1): > 10 µM; IC50 (D283 Med): > 10 µM; IC50 (Mo): > 10 µM; IC50 (639-V): 9.64 µM; IC50 (RVH-421): 0.972 µM; IC50 (MLMA): > 10 µM; IC50 (8505C): 3.9 µM; IC50 (NCI-H292): 1.87 µM; IC50 (A704): > 10 µM; IC50 (SW756): > 10 µM; IC50 (NCI-H1304): 6.2 µM; IC50 (AN3-CA): 6.69 µM; IC50 (KG-1): 0.307 µM; IC50 (SNU-C2B): > 10 µM
